Like-named read-outs stand apart in the source and are kept apart here.
Tests used:
[1] = target: GDP-bound NRAS wild-type protein (Homo sapiens, UniProt P01111); assay: Binding to NRAS by surface plasmon resonance (SPR), KD and KD ratio to KRAS
Procedure, shortened: (§1)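 Affinity is measured by surface plasmon resonance at 30°C against captured, GDP-loaded RAS carrying a biotinylated Avi tag. Compounds are titrated by single-cycle kinetics, and KD comes from a 1:1 fit.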

[2] = target: GDP-bound KRAS wild-type protein (Homo sapiens, UniProt P01116); assay: Binding to KRAS by surface plasmon resonance (SPR), dissociation constant KD
Chain of GDP-bound KRAS wild-type protein (P01116 1-188 isoform P01116-2): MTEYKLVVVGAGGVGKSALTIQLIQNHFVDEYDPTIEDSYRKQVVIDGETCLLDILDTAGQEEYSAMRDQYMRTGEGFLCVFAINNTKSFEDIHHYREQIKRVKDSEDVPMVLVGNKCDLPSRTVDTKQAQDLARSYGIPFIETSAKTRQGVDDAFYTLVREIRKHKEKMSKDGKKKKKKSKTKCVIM
Procedure, shortened: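 SPR, 30°C: Avi-biotin RAS·GDP captured via Biotin CAPture (~100–300 RU); running buffer HBS pH 7.4, 1 mM DTT, 10 mM MgCl2, 0.01% Tween 20, 10 µM GDP, 4% DMSO. Single-cycle kinetics, 100 µL/min, 75 s injections; 1:1 model → KD.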

HRAS wild-type protein = HRAS wild-type protein (Homo sapiens, UniProt P01112); assay: Binding to HRAS by surface plasmon resonance (SPR), KD and KD ratio to KRAS
Chain of HRAS wild-type protein (P01112 whole entry): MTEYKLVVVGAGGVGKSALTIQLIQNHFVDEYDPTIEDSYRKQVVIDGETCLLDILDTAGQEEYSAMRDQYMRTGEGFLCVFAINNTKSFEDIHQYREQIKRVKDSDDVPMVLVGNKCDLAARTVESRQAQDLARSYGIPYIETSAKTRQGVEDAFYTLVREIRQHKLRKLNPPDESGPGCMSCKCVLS
Procedure, shortened: as §1

[3] = tested on: human lung cancer strain NCI-H441; assay: NCI-H441 cell proliferation inhibitory activity (CellTiter-Glo, 4 days); assay type: cell-based; conditions: read-out: NCl-H441 IC50
Procedure, shortened: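 Readout: […] after the ATP-based reagent. Compound: serial dilutions in dimethyl sulfoxide.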

[4] = ratio of KD for GDP-bound NRAS wild-type protein to KD for KRAS
[5] = ratio of KD for HRAS wild-type protein to KD for KRAS
[6] = ratio of KD with respect to GDP-bound NRAS wild-type protein to KD with respect to KRAS
[7] = Single Cycle Kinetics, 1:1 binding model
[8] = ratio of KD with respect to HRAS wild-type protein to KD with respect to KRAS
[9] = 50% proliferation inhibitory concentration, four days

Chain of GDP-bound NRAS wild-type protein (P01111 whole entry): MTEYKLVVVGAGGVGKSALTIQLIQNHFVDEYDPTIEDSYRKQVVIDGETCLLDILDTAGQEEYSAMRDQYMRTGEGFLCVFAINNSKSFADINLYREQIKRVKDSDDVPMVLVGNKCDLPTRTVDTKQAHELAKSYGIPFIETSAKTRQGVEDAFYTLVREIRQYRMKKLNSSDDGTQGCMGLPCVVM

SMILES | Kd ([2]; Single Cycle Kinetics) [nM] | IC50 ([3]; NCI-H441 cells, 4 days) [nM] | Kd [2, 7] [nM] | IC50 [3, 9] [nM] | Kd ([2]; 1:1 binding model) [nM] | NRAS /KRAS [1, 4] | HRAS /KRAS (HRAS wild-type protein; [5]) | NRAS /KRAS [1, 6] | HRAS /KRAS (HRAS wild-type protein; [8])
C=CC[C@H]1C(=O)N(C)[C@H](C(=O)N(C)C)CC(=O)N(C)[C@@H](CCC)C(=O)N[C@@H]([C@@H](C)CC)C(=O)N(C)CC(=O)N(C)[C@H]2C/C=C\CCN(C2=O)[C@@H](Cc2ccc(C(F)(F)F)cc2)C(=O)N(C)CC(=O)N[C@@H](CCc2ccc(C(F)(F)F)c(OC)c2)C(=O)N2C[C@H](OCC)C[C@H]2C(=O)N(C)C2(CCC2)C(=O)N1C [PP3330] | 1.1 | 80.4 | – | – | – | A (a compound having 10 or more and less than 20 is denoted as A) | A (a compound having 10 or more and less than 20 is denoted as A) | – | –
CCC[C@H]1C(=O)N[C@@H]([C@@H](C)CC)C(=O)N(C)CC(=O)N(C)[C@H]2C/C=C\CCN(C2=O)[C@@H](Cc2ccc(C)cc2)C(=O)N(C)CC(=O)N[C@@H](CCc2ccc(C(F)(F)F)c(Cl)c2)C(=O)N2CC3(CC3)C[C@H]2C(=O)N(C)C2(CCC2)C(=O)N(C)[C@@H]([C@@H](C)CC)C(=O)N(C)[C@H](C(=O)N(C)C)CC(=O)N1C [PP3302] | 0.081 | 9 | – | – | – | A (a compound having 10 or more and less than 20 is denoted as A) | A (a compound having 10 or more and less than 20 is denoted as A) | – | –
CCO[C@@H]1C[C@H]2C(=O)NC3(CC(C)(C)C3)C(=O)N(C)[C@@H](C(CC)CC)C(=O)N(C)[C@H](C(=O)N(C)C)CC(=O)N(C)[C@@H](CC3CC3)C(=O)N[C@@H]([C@@H](C)CC)C(=O)N(C)CC(=O)N(C)[C@H]3C/C=C\CCN(C3=O)[C@@H](CC3CCC(F)(F)CC3)C(=O)N(C)CC(=O)N[C@@H](CCc3ccc(C(F)(F)F)c(OC)c3)C(=O)N2C1 [PP2480] | – | 30.5 | – | – | 0.84 | A (a compound having 10 or more and less than 20 is denoted as A) | A (a compound having 10 or more and less than 20 is denoted as A) | – | –
CCCOC[C@@H]1NC(=O)C[C@@H](C(=O)N(C)CCC)N(C)C(=O)[C@H](C2CCCC2)N(C)C(=O)C2(CC(C)(C)C2)NC(=O)[C@@H]2C[C@@H](OCC)CN2C(=O)[C@H](CCc2ccc(C(F)(F)F)c(Cl)c2)NC(=O)CN(C)C(=O)[C@H](Cc2ccc(C(F)(F)F)cc2)N2CC/C=C\C[C@@H](C2=O)N(C)C(=O)CN(C)C(=O)[C@H]([C@@H](C)CC)NC1=O [PP3450] | 0.51 | 43.3 | – | – | – | A (a compound having 10 or more and less than 20 is denoted as A) | A (a compound having 10 or more and less than 20 is denoted as A) | – | –
CCC[C@H]1C(=O)N[C@@H](C2CCCC2)C(=O)N(C)CC(=O)N(C)[C@H]2C/C=C\CCN(C2=O)[C@@H](Cc2ccc(C)cc2)C(=O)N(C)CC(=O)N[C@@H](CCc2ccc(C(F)(F)F)c(Cl)c2)C(=O)N2CC3(CC3)C[C@H]2C(=O)NC2(CCC2)C(=O)N(C)[C@@H](C(CC)CC)C(=O)N(C)[C@H](C(=O)N(C)C)CC(=O)N1C [PP3432] | 0.71 | 57.7 | – | – | – | AA (a compound having 20 or more is denoted as AA) | A (a compound having 10 or more and less than 20 is denoted as A) | – | –
CCC[C@H]1C(=O)N[C@@H]([C@@H](C)CC)C(=O)N(C)CC(=O)N(C)[C@H]2C/C=C\CCN(C2=O)[C@@H](Cc2ccc(C)cc2)C(=O)N(C)CC(=O)N[C@@H](CCc2ccc(Cl)c(Cl)c2)C(=O)N2C[C@H](OCC)C[C@H]2C(=O)NC2(CC(C)(C)C2)C(=O)N(C)[C@@H](CC(C)(C)C)C(=O)N(C)[C@H](C(=O)N(C)C)CC(=O)N1C [PP2714] | – | 13.2 | – | – | 0.25 | A (a compound having 10 or more and less than 20 is denoted as A) | A (a compound having 10 or more and less than 20 is denoted as A) | – | –
CCCN1CC(=O)N(C)[C@H]2C/C=C\CCN(C2=O)[C@@H](Cc2ccc(C(F)F)cc2)C(=O)N(C)CC(=O)N[C@@H](CCc2cc(F)c(C(F)(F)F)c(F)c2)C(=O)N2C[C@H](OC(C)C)C[C@H]2C(=O)N(C)C2(CCC2)C(=O)N(C)[C@@H](C(CC)CC)C(=O)N(C)[C@H](C(=O)N(C)C)CC(=O)N(C)[C@@H](CC(F)F)C(=O)N[C@@H](C2CCCC2)C1=O [PP3497] | 0.74 | 21.2 | – | – | – | A (a compound having 10 or more and less than 20 is denoted as A) | A (a compound having 10 or more and less than 20 is denoted as A) | – | –

Further lines, with some results ahead:

Kd ([2]; Single Cycle Kinetics) [nM] | IC50 ([3]; NCI-H441 cells, 4 days) [nM] | Kd [2, 7] [nM] | IC50 [3, 9] [nM] | Kd ([2]; 1:1 binding model) [nM] | SMILES | NRAS /KRAS [1, 4] | HRAS /KRAS (HRAS wild-type protein; [5]) | NRAS /KRAS [1, 6] | HRAS /KRAS (HRAS wild-type protein; [8])
– | – | 0.36 | 34.1 | – | CC[C@H](C)[C@@H]1NC(=O)[C@H](CC)N(C)C(=O)C[C@@H](C(=O)N(C)C)N(C)C(=O)[C@H](C2CCCC2)N(C)C(=O)C2(CCC2)NC(=O)[C@@H]2C[C@@H](C(F)(F)F)CN2C(=O)[C@H](CCc2cc(F)c(C(F)(F)F)c(F)c2)NC(=O)CN(C)C(=O)[C@H](CC2CCCCC2)N2CC/C=C\C[C@@H](C2=O)N(C)C(=O)CN(C)C1=O [PP1465] | – | – | A (a compound having 10 or more and less than 20 is denoted as A) | A (a compound having 10 or more and less than 20 is denoted as A)
– | – | 0.23 | 32.9 | – | CCO[C@@H]1C[C@H]2C(=O)NC3(CCC3)C(=O)N(C)[C@@H](C3CCCC3)C(=O)N(C)[C@H](C(=O)N(C)C)CC(=O)N(C)[C@@H](CC(C)(C)C)C(=O)N[C@@H]([C@@H](C)CC)C(=O)N(C)CC(=O)N(C)[C@H]3C/C=C\CCN(C3=O)[C@@H](CC3CCC(F)(F)CC3)C(=O)N(C)CC(=O)N[C@@H](CCc3cc(F)c(C(F)(F)F)c(F)c3)C(=O)N2C1 [PP1460] | – | – | A (a compound having 10 or more and less than 20 is denoted as A) | A (a compound having 10 or more and less than 20 is denoted as A)
– | 7.9 | – | – | 0.065 | CC[C@H](C)[C@@H]1NC(=O)[C@H](COC)N(C)C(=O)C[C@@H](C(=O)N(C)C)N(C)C(=O)[C@H](C2CCCC2)N(C)C(=O)C2(CC(C)(C)C2)NC(=O)[C@@H]2C[C@H](C)CN2C(=O)[C@H](CCc2ccc(C(F)(F)F)c(Cl)c2)NC(=O)CN(C)C(=O)[C@H](Cc2ccc(C)cc2)N2CC/C=C\C[C@@H](C2=O)N(C)C(=O)CN(C)C1=O [PP2502] | A (a compound having 10 or more and less than 20 is denoted as A) | A (a compound having 10 or more and less than 20 is denoted as A) | – | –
– | – | 0.092 | 15.5 | – | CCO[C@@H]1C[C@H]2C(=O)NC3(CCC3)C(=O)N(C)[C@@H](C3CCCC3)C(=O)N(C)[C@H](C(=O)N(C)C)CC(=O)N(C)[C@@H](CC)C(=O)N[C@@H]([C@@H](C)CC)C(=O)N(C)CC(=O)N(C)[C@H]3CCCCCN(C3=O)[C@@H](Cc3ccc(F)cc3)C(=O)N(C)CC(=O)N[C@@H](CCc3cc(F)c(C(F)(F)F)c(F)c3)C(=O)N2C1 [PP1190] | – | – | B (a compound having 3 or more and less than 10 is denoted as B) | B (a compound having 3 or more and less than 10 is denoted as B)
– | – | 0.23 | 48.2 | – | CCO[C@@H]1C[C@H]2C(=O)NC3(CCC3)C(=O)N(C)[C@@H](C3CCCC3)C(=O)N(C)[C@H](C(=O)N(C)C)CC(=O)N(C)[C@@H](CC(C)(C)C)C(=O)N[C@@H]([C@@H](C)CC)C(=O)N(C)CC(=O)N(C)[C@H]3C/C=C\CCN(C3=O)[C@@H](CC3CCCCC3)C(=O)N(C)CC(=O)N[C@@H](CCc3cc(F)c(C(F)(F)F)c(F)c3)C(=O)N2C1 [PP1474] | – | – | A (a compound having 10 or more and less than 20 is denoted as A) | A (a compound having 10 or more and less than 20 is denoted as A)

Reference: patent publication EP4603105A1, “PHARMACEUTICAL COMPOSITION CONTAINING CYCLIC COMPOUND HAVING SELECTIVE KRAS INHIBITORY EFFECT AGAINST HRAS AND NRAS” (CHUGAI SEIYAKU KABUSHIKI KAISHA, priority 2022, dated 2024)
